From patent US12172995B2, “Substituted indole and indazole compounds” (BRISTOL-MYERS SQUIBB COMPANY, priority 2018, dated 2024) come the findings set out here.

What all share (assay type): cell-based
One assay concerns the target T1, human TLR7 (Homo sapiens, UniProt Q9NYK1).
T1 construct: host or cells: HEK-Blue cells
T1 sequence (Q9NYK1 27-1049): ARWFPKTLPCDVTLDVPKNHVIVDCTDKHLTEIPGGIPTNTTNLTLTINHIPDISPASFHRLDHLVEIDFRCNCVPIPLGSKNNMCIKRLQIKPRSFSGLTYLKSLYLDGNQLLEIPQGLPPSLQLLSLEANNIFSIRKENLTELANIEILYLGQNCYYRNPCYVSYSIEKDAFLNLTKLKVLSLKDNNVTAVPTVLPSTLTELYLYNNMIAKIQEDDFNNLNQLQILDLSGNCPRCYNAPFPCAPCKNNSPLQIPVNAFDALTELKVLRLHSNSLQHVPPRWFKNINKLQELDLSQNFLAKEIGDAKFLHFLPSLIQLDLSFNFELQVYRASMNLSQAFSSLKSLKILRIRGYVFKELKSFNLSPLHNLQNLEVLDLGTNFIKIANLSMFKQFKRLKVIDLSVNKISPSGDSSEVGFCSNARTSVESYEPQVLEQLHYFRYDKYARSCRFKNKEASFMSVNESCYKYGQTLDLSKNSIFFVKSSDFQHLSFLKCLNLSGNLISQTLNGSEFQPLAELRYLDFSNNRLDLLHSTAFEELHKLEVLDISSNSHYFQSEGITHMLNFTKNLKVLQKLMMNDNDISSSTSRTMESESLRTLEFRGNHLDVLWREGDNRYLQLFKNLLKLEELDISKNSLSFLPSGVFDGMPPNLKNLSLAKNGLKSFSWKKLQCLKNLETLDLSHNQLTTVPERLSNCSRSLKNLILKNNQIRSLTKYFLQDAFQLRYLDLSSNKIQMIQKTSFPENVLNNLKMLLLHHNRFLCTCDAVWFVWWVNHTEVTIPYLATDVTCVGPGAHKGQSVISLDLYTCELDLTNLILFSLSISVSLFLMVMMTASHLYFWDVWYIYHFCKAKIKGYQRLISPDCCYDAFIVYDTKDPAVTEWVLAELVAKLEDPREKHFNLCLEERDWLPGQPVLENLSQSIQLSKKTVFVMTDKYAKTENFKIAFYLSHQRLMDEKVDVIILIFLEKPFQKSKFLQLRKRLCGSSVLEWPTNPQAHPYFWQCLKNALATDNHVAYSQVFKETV
Kind of assay: TLR7 inhibition reporter assay (HEK-Blue SEAP). Particulars: HEK-Blue cells overexpressing human TLR7, stimulated with gardiquimod 7.5 μM, 22 hour incubation. The gist of the method:
(§1)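 Percent inhibition reflects SEAP reduction after 22 h at 37° C, relative to agonist-plus-DMSO and known-inhibitor controls. Compounds (0.05 nM to 50 μM) were added 30 min before agonist: TLR9 cells received ODN2006 5 nM, TLR8 cells R848 15.9 μM, TLR7 cells gardiquimod 7.5 μM; human receptor-expressing HEK-Blue reporter lines.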

A further assay deals with T2, human TLR8 (Homo sapiens, UniProt Q9NR97).
T2 construct: host or cells: HEK-Blue cells
T2 sequence (Q9NR97 27-1041): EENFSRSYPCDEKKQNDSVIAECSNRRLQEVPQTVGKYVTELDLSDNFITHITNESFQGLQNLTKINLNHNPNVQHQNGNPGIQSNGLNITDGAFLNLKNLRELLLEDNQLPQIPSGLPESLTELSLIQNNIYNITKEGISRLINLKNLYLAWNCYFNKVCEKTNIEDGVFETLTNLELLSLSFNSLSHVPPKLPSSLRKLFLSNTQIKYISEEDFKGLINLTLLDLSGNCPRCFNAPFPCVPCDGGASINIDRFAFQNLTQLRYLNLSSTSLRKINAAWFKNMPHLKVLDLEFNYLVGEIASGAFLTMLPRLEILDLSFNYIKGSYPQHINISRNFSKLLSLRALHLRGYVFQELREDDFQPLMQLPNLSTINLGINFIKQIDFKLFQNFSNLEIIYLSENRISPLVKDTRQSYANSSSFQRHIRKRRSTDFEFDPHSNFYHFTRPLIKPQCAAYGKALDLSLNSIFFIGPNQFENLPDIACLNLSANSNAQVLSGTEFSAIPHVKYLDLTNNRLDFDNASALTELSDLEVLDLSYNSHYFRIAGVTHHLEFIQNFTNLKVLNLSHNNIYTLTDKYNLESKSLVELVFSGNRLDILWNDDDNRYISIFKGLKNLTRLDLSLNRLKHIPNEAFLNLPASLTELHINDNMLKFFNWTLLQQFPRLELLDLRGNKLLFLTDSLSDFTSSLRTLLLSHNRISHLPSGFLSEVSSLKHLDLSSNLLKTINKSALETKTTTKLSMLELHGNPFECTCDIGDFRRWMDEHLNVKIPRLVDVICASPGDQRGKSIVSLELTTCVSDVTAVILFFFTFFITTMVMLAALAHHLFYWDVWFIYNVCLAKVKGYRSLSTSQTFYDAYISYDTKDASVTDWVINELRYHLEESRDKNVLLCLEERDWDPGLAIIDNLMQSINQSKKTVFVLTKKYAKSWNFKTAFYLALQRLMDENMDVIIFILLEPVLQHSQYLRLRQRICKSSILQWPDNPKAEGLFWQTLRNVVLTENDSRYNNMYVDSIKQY
Kind of assay: TLR8 inhibition reporter assay (HEK-Blue SEAP). Particulars: HEK-Blue cells overexpressing human TLR8, stimulated with R848 15.9 μM, 22 hour incubation. The gist of the method: as §1
(In general: A reporter such as luciferase makes a cellular process visible.)

For a further assay, the target named is T3, human TLR9 (Homo sapiens, UniProt Q9NR96).
T3 construct: host or cells: HEK-Blue cells
T3 sequence (Q9NR96 26-1032): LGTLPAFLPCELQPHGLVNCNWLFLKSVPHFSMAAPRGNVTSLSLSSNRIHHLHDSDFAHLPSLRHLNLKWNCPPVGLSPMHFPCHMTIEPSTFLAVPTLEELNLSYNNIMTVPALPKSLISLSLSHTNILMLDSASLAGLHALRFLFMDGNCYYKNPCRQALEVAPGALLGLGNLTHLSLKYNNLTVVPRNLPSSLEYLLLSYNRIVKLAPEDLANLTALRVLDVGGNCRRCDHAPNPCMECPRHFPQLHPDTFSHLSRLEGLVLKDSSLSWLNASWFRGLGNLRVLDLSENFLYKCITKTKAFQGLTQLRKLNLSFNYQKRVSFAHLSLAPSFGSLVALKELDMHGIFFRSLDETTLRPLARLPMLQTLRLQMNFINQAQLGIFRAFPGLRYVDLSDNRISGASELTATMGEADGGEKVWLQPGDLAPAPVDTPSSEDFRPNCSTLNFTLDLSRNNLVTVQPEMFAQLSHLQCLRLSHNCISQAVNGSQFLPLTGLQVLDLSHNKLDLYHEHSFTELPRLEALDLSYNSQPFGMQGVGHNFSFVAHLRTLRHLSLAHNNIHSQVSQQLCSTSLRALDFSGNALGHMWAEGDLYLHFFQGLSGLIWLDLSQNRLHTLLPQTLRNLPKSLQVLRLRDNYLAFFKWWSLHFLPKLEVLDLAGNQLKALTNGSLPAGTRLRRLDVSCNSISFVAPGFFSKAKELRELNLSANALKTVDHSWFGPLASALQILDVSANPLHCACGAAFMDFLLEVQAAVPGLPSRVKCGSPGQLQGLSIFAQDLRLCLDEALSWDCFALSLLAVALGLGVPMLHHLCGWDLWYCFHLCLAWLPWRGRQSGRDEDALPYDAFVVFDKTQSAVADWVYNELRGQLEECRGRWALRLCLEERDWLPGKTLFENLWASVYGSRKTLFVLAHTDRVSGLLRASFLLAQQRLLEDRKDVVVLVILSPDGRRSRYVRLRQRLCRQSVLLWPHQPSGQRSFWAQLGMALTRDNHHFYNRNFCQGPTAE
Briefly: TLR9 inhibition reporter assay (HEK-Blue SEAP). The conditions noted are these: HEK-Blue cells overexpressing human TLR9, stimulated with ODN2006 5 nM, 22 hour incubation. The gist of the method:
as §1

For the molecule `Cc1cc(-c2cc3[nH]nc(C4CCC(N5CCC(C)(O)C5)CC4)c3cc2C(C)C)cn2ncnc12` (single isomer, unassigned) [Example 166, 1-(4-(5-isopropyl-6-(8-methyl-[1,2,4]triazolo[1,5-a]pyridin-6-yl)-1H-indazol-3-yl)cyclohexyl)-3-methylpyrrolidin-3-ol], the IC50 (commonly the concentration at which inhibition is half-maximal) against human TLR7 amounted to 4.2 nM; at human TLR8, 0.2 nM; on human TLR9, 8900 nM.
For `CCc1cc(-c2cc(C)c3ncnn3c2)cc2[nH]nc(OC3CCC(N(C)C)CC3)c12` (single isomer, unassigned) [Example 168, 4-((4-ethyl-6-(8-methyl-[1,2,4]triazolo[1,5-a]pyridin-6-yl)-1H-indazol-3-yl)oxy)-N,N-dimethylcyclohexan-1-amine], in that order: 1.9 nM, 1.6 nM and 2570 nM.
As to `CCc1cc(-c2cc(C)c3ncnn3c2)cc2[nH]nc(OC3CCC(N(C)C)CC3)c12` (single isomer, unassigned) [Example 169, 4-((4-ethyl-6-(8-methyl-[1,2,4]triazolo[1,5-a]pyridin-6-yl)-1H-indazol-3-yl)oxy)-N,N-dimethylcyclohexan-1-amine], the IC50 against human TLR7 is 1.2 nM; against human TLR8 it was 0.5 nM; on human TLR9, 1830 nM.
On to `Cc1cc(-c2cc(C)c3ncnn3c2)cc2[nH]nc(OC3CCC(N(C)C)CC3)c12` (single isomer, unassigned) [Example 179, N,N-dimethyl-4-((4-methyl-6-(8-methyl-[1,2,4]triazolo[1,5-a]pyridin-6-yl)-1H-indazol-3-yl)oxy)cyclohexan-1-amine], for which the half-maximal inhibitory concentration (IC50) at human TLR7 stood at 3.3 nM; against human TLR8, 8.5 nM; against human TLR9, 2080 nM.
As to `Cc1cc(-c2cc(C)c3ncnn3c2)cc2[nH]nc(OC3CCC(N(C)C)CC3)c12` (single isomer, unassigned) [Example 180, N,N-dimethyl-4-((4-methyl-6-(8-methyl-[1,2,4]triazolo[1,5-a]pyridin-6-yl)-1H-indazol-3-yl)oxy)cyclohexan-1-amine], the IC50 at human TLR7 amounted to 2.6 nM; at human TLR8, 2.3 nM; against human TLR9, 3260 nM.
For `Cc1cc2c(OC3CCC(N(C)C)CC3)n[nH]c2cc1-c1cc(C)c2ncnn2c1` (single isomer, unassigned) [Example 181, N,N-dimethyl-4-((5-methyl-6-(8-methyl-[1,2,4]triazolo[1,5-a]pyridin-6-yl)-1H-indazol-3-yl)oxy)cyclohexan-1-amine], in that order: 71.7 nM, 19.9 nM and ≥ 50000 nM.
For the molecule `Cc1cc2c(OC3CCC(N(C)C)CC3)n[nH]c2cc1-c1cc(C)c2ncnn2c1` (single isomer, unassigned) [Example 182, N,N-dimethyl-4-((5-methyl-6-(8-methyl-[1,2,4]triazolo[1,5-a]pyridin-6-yl)-1H-indazol-3-yl)oxy)cyclohexan-1-amine], the IC50 against human TLR7 was found to be 25.9 nM; on human TLR8, 5.8 nM; at human TLR9, 27400 nM.
As to `COc1cc(-c2cc(C)c3c(OC4CCC(N(C)C)CC4)n[nH]c3c2)cn2ncnc12` (single isomer, unassigned) [Example 183, 4-((6-(8-methoxy-[1,2,4]triazolo[1,5-a]pyridin-6-yl)-4-methyl-1H-indazol-3-yl)oxy)-N,N-dimethylcyclohexan-1-amine], the IC50 worked out at 4.9 nM on human TLR7, 8.1 nM at human TLR8 and 2310 nM against human TLR9.
The corresponding values for `COc1cc(-c2cc(C)c3c(OC4CCC(N(C)C)CC4)n[nH]c3c2)cn2ncnc12` (single isomer, unassigned) [Example 184, 4-((6-(8-methoxy-[1,2,4]triazolo[1,5-a]pyridin-6-yl)-4-methyl-1H-indazol-3-yl)oxy)-N,N-dimethylcyclohexan-1-amine] are 1.8 nM, 1.8 nM and 1190 nM.
`Cc1cc(-c2cc(C)c3ncnn3c2)cc2[nH]nc(OC3CCC(NCC(=O)N(C)C)CC3)c12` (single isomer, unassigned) [Example 185, N,N-dimethyl-2-((4-((4-methyl-6-(8-methyl-[1,2,4]triazolo[1,5-a]pyridin-6-yl)-1H-indazol-3-yl)oxy)cyclohexyl)amino)acetamide]: the concentration for half-maximal inhibition (IC50) against human TLR7 came to 20.9 nM; against human TLR8, 9.5 nM; on human TLR9, 2770 nM.
Take `Cc1cc(-c2cc(C)c3ncnn3c2)cc2[nH]nc(OC3CCC(NCC(=O)N(C)C)CC3)c12` (single isomer, unassigned) [Example 186, N,N-dimethyl-2-((4-((4-methyl-6-(8-methyl-[1,2,4]triazolo[1,5-a]pyridin-6-yl)-1H-indazol-3-yl)oxy)cyclohexyl)amino)acetamide]: the IC50 at human TLR7 is 2.4 nM; against human TLR8 it was 1.9 nM; against human TLR9, 2550 nM.
